{
  "source": "paper PMC7915902",
  "about": "“Preclinical Evaluation of [^18F]FACH in Healthy Mice and Piglets: An ^18F-Labeled Ligand for Imaging of Monocarboxylate Transporters with PET” (International Journal of Molecular Sciences, 2021)",
  "key": {"[1]": {"assay": "Extended single dose toxicity study in rats", "type": "in vivo, rat", "protocol": "The extended single dose toxicity studies of FACH in male (n = 15) and female (n = 15) outbred Wistar rats were performed in the Biological Testing Laboratory (BTL) in Russia (Study Number 680/19). The test item FACH-Na was administered by single bolus i.v. injection at doses of 6.2, 62 and 620 μg/kg body weight (bw). Mortality, clinical pathology parameters (hematology and serum chemistry), organ weights and microscopic tissue parameters were investigated 24 h and two weeks after treatment."}, "MCTs [2]": {"tested_on": "MCTs", "assay": "Autoradiographic competition study in mouse kidney cryosections", "type": "binding", "conditions": "300 nM competitor, 1 nM [18F]FACH", "protocol": "Cryosections from the mouse kidney (10 µm) were cut on a microtome (Microm HM560, Thermo Scientific Microm, Fisher Scientific GmbH, Schwerte, Germany), mounted on glass slides (SuperFrost, Thermo Scientific Menzel, Fisher Scientific GmbH), dried for two hours at room temperature, and stored at −25 °C. Before the binding experiment, the tissue slices were dried under a stream of cold air, pre-incubated with PBS (pH 7.4) for 15 min at room temperature and dried again before incubation with PBS containing [^18F]FACH (1.2 nM) without (total binding) and with different concentrations of FACH-Na (10 µM–0.1 nM; homologous competition) for 60 min. Specific binding to MCTs of [^18F]FACH in cryosections of mouse kidney was determined after co-incubation of 1 nM [^18F]FACH with vehicle or 300 nM α-CCa-Na or 300 nM reference compound (homologous competition).\nThe incubation was terminated by washing with ice-cold buffer (50 mM TRIS-HCl, pH 7.4) twice for two minutes followed by dipping in ice-cold demineralized water for 5 s and drying under a stream of cold air. […] KD and Bmax values were calculated by the simplified Cheng and Prusoff equation (http://www3.uah.es/farmamol/Public/GraphPad/radiolig.htm, accessed on 5 February 2021):(1) KD=Ki=IC50−Radioligand (M) (2) Bmax=Top−Bottom/Radioligand (M)/(KD+Radioligand (M))"}, "MCTs [3]": {"tested_on": "MCTs", "assay": "Dynamic PET/MRI in mice with pre-treatment", "type": "in vivo, mouse", "conditions": "for AUC0–60 min gall bladder / AUC0–60 min kidney cortex / AUC0–60 min liver / AUC0–60 min small intestine / AUC0–60 min whole blood: mouse, in vivo", "protocol": "(§1) The biodistribution of [^18F]FACH in mice was assessed by small animal PET (Nanoscan, Mediso, Budapest, Hungary) with dynamic 60 min emission recordings, followed by T1 weighted GRE MR (TR = 15.0 ms, TE = 2.4 ms, FA = 25°) imaging for anatomical correlations and attenuation correction. The mice (n = 20) weighing 32.2 ± 2.9 g were anaesthetised with 2% isoflurane in 60% oxygen, and placed on a thermostatically heated animal bed. The animals then received i.v. injections of 0.9% saline (control), reference compound (10 mg/kg), or α-CCA-Na (25 mg/kg) ten min prior or 20 min after (displacement studies) [^18F]FACH administration (2.3–8.6 MBq, 0.5–11.2 nmol/kg). List mode PET data were binned as a series of attenuation-corrected sinogram frames (12 × 10 s, 6 × 30 s, 5 × 60 s and 10 × 300 s) and were reconstructed by Ordered Subset Expectation Maximization (OSEM3D) with four iterations, six subsets and a voxel size of 0.4 mm³ (Nucline v2.01, Mediso).\n(§2) The analysis of reconstructed datasets was performed with PMOD software (v4.103, PMOD Technologies LLC, Zurich, Switzerland).\n(§3) Data are shown in mean ± standard deviation (SD). Group differences were tested by Student’s t-test, with p < 0.05 designated as significant. Area Under the Curves (AUCs) and corresponding 95% confidence intervals (CI95%s) were calculated with GraphPad Prism (v.8.2) following the assumptions described by Gagnon et al.."}, "MCT4": {"tested_on": "MCT4", "set-up": "method as in PMID 31017677", "conditions": "L-[14C]lactate uptake, MDA-MB231 cells; read-out: IC50 towards MCT4; cited from earlier work"}, "MCT1 [4]": {"tested_on": "MCT1", "set-up": "method as in PMID 31017677", "conditions": "L-[14C]lactate uptake, rat brain endothelial cells; read-out: IC50 towards MCT1; cited from earlier work"}, "MCT1 [5]": {"tested_on": "MCT1", "set-up": "method as in PMID 8779821", "conditions": "cited from earlier work"}, "MCTs [6]": {"tested_on": "MCTs", "type": "in vivo, piglet", "protocol": "The piglets (n = 6) were inititally anaesthetised with intramuscular injections of stresnil and ursotamin, and anaesthesia was maintained with intravenous ursotamin and midazolam, as required. The hematocrit was measured in an ear vein blood sample collected just prior to imaging. Either saline (n = 3) or 25 mg/kg α-CCA-Na (n = 3) in saline was administrated ten min before i.v. administration of [^18F]FACH (261–327 MBq, corresponding to 218–852 pmol/kg) via an ear vein. Imaging was performed with a simultaneous hybrid PET/MR system (mMR Biograph; Siemens, Erlangen, Germany) equipped with dedicated phased-array surface. PET data were reconstructed into a 128 × 128 matrix (voxel size: 1.40 × 1.40 × 2.03 mm^3) using the built-in OSEM3D algorithm with eight iterations, 21 subsets, and a 3-mm Gaussian filter. The attenuation and decay corrected dynamic sequence consisted of 32 frames as follows: 1 × 15, 11 × 30, 1 × 45, 5 × 60, 1 × 90, 5 × 120, 1 × 180, 4 × 240, 1 × 300, 2 × 360 s, whereas activity concentrations in VOIs are represented in units of SUV or percentage of injected dose (%/ID). After completing the dynamic PET recording, piglets were euthanized with an i.v. overdose of T61 (Intervet Deutschland GmbH, Unterschleißheim, Germany) and tissues were sampled for radio-metabolism studies in selected animals.\nas §2, §3"}, "MCTs [7]": {"tested_on": "MCTs", "assay": "Compartmental kinetic modelling of PET data in piglets", "type": "in vivo, piglet", "conditions": "living piglets, α-CCA-Na dose", "protocol": "(§4) Table 4 includes the results of 1-tissue-compartment kinetic modelling (1-TCM) of [^18F]FACH in the kidney cortex and the liver of the control and pre-treated mouse groups (α-CCA-Na and reference compound). […] The BPND was estimated as the ratio of [VT(control)/VT(pre-treatment)] − 1.\n(§5) Kinetic analysis of reconstructed datasets was performed with PMOD software. First, image derived arterial input functions (IDIFs) were obtained from the left ventricle in mice and from an artery close to the kidney in piglet studies. IDIFs were corrected for partial volume effects, plasma fraction from hematocrit values (individually determined for each piglet directly before PET imaging; for mice set to 0.51 according to CD-1 Mouse Hematology sheet from Charles River Laboratories, 2011) and radio-metabolites (measured for piglets, and set to zero for mice). Tri-exponential metabolite-corrected fitted input functions were used for one and two tissue compartment modelling (1-TCM/2-TCM) of time activity curves (TACs) in tissue volumes of interest (VOIs). For both species the specific blood volume was set to 0.15 mL g^−1 in the kidney cortex and 0.128 mL g^−1 in the liver, according to published values."}, "[8]": {"assay": "Metabolism and renal excretion of [18F]FACH in piglets (radio-HPLC, graphical analysis)", "conditions": "piglet pre-treated with α-CCA-Na, 60 min p.i.", "method": "(§6) Radio-metabolites were analyzed by analytical and semi-preparative HPLC on a JASCO LC-2000 system (JASCO Labor- und Datentechnik, Gross-Umstadt, Germany), consisting of a PU-2080 Plus pump, AS-2055 Plus auto injector (100 μL sample loop) or a manual injection valve with a 5 mL sample loop, and a UV-2070 Plus detector coupled with a gamma radioactivity HPLC detector (Gabi Star, Raytest Isotopenmessgeräte GmbH, Straubenhardt, Germany). Data analysis was performed with the Galaxie chromatography software (Agilent Technologies, Santa Clara, CA, USA). […] For analytical and semi-preparative radio-HPLC analyses, Reprosil-Pur columns (C18-AQ 250 × 4.6 mm; 5 μm; and C18-AQ 150 × 4.6 mm; 10 μm; Dr. Maisch HPLC GmbH; Ammerbuch-Entringen, Germany) were used. Acetonitrile (ACN) mixed with a 20 mM aqueous solution of ammonium acetate (NH4OAc) was used as eluent.\n(§7) In corresponding piglet studies (n = 5), plasma was separated from the arterial blood samples drawn during the PET recordings at certain time points.\n(§8) In piglet studies, similar procedures were implemented for preparing samples from plasma collected at 15, 30, 45 and 60 min p.i., with the exception of collecting the urine sample only at 60 min p.i. Additionally, in order to measure the radio-metabolites in the piglet kidney, the tissue was resected at 60 min p.i. and after washing in PBS, samples of the kidney cortex and medulla were isolated and homogenized in demineralized water (2 mL/g tissue) using a borosilicate glass mortar with ten strokes of a PTFE plunger at 1000 rpm (Potter S, Homogenizer, B. Braun Biotech, Sartorius AG, Göttingen, Germany). Protein precipitation was performed by addition of ice-cold ACN/H2O at a ratio of 4:1 (v/v) of organic solvent to each tissue sample. The samples were vortexed for 3 min, placed on ice for 3 min, and the suspensions were centrifuged at 12,000 rpm at 4 °C for 5 min. For the second extraction, the precipitates were washed with 200 μL of the solvent mixture and subjected to the same procedure. The combined supernatants (total volume between 68 mL) were concentrated at 70 °C under argon flow to a final volume of approximately 2 mL and analyzed by semi-preparative RP radio-HPLC. […] The analyses were performed in gradient mode using 10% ACN/20 mM NH4OAc (aq.) as eluent A and 90% ACN/20 mM NH4OAc (aq.) as eluent B under the following conditions:\n(§9) To determine the percentage of the radioactivity in the supernatants compared to the total radioactivity aliquots were taken at each step and, as well as the precipitates, quantified by gamma counting.\n(§10) By interpolation of the measured radio-metabolite fractions from the piglet PET studies, the continuous TACs for [^18F]FACH and its radio-metabolites were calculated. Subsequently, the magnitudes of the whole body rate constant for [^18F]FACH metabolism (k0) and the elimination rate constant for the radio-metabolites (k−1) under control and pre-treated conditions were calculated as described previously [32]. Graphical analysis of the integrals of the plasma time-concentration series of PET tracers and their radio-metabolite(s) follow a linear relationship [32, 47], where the ordinate intercept is equal to the whole body fractional rate constant for the metabolism of the parent, designated k0 (min^−1). The linear regression slope corresponds to the fractional rate constant for the elimination of the radio-metabolite from circulation, designated k−1 (min^−1), which indicates the renal clearance of the radio-metabolite."}, "MCTs [9]": {"tested_on": "MCTs", "assay": "PET displacement study in mice", "type": "in vivo, mouse", "protocol": "as §1, §2"}, "MCTs [10]": {"tested_on": "MCTs", "assay": "Compartmental kinetic modelling of PET data in mice", "type": "in vivo, mouse", "conditions": "kidney cortex, 2-TCM, [18F]FACH after α-CCA-Na pre-treatment", "protocol": "as §4, §5"}, "[11]": {"conditions": "in vivo", "method": "as §6, §7, §8, §9, §10"}, "[12]": {"conditions": "mice, reference compound 10 mg/kg pre-treatment"}},
  "note": "Like-named read-outs stand apart in the source and are kept apart here.",
  "data": [
    {"compound": "CCCN(CCCF)c1ccc(/C=C(\\C#N)C(=O)[O-])c(OC)c1.[Na+]", "note": "[FACH-Na]", "values": [
      {"measurement": "no-observed-adverse-effect-level (NOAEL)", "setting": "[1]; Wistar rats, single bolus i.v.", "result": 620, "unit": "µg FACH-Na/kg bodyweight"},
      {"measurement": "NOAEL relative to the equivalent to the human dose (0.1 µg/kg)", "setting": "[1]; rats", "result": "approximately 1000 fold"},
      {"measurement": "displacement of [18F]FACH", "setting": "MCTs [2]", "result": 41, "unit": "%"},
      {"measurement": "reduction of [18F]FACH AUC0–60min in kidney cortex vs control", "setting": "MCTs [3]; [12]", "result": 79, "unit": "%"},
      {"measurement": "reduction of [18F]FACH AUC0–60min in liver vs control", "setting": "MCTs [3]; [12]", "result": 44, "unit": "%"},
      {"measurement": "AUC0–60 min gall bladder", "setting": "MCTs [3]; 10 mg/kg", "result": 1388, "unit": "SUV min"},
      {"measurement": "AUC0–60 min kidney cortex", "setting": "MCTs [3]; 10 mg/kg", "result": 62, "unit": "SUV min"},
      {"measurement": "AUC0–60 min liver", "setting": "MCTs [3]; 10 mg/kg", "result": 250, "unit": "SUV min"},
      {"measurement": "AUC0–60 min small intestine", "setting": "MCTs [3]; 10 mg/kg", "result": 405, "unit": "SUV min"},
      {"measurement": "AUC0–60 min whole blood", "setting": "MCTs [3]; 10 mg/kg", "result": 125, "unit": "SUV min"}
    ]},
    {"compound": "CCCN(CCCF)c1ccc(/C=C(\\C#N)C(=O)O)c(OC)c1", "note": "[FACH]", "values": [
      {"measurement": "IC50", "setting": "MCT4", "result": 6.5, "unit": "nM"},
      {"measurement": "IC50", "setting": "MCT1 [4]", "result": 11, "unit": "nM"}
    ]},
    {"compound": "N#CC(=Cc1ccc(O)cc1)C(=O)O", "note": "[α-CCA, α-cyano-4-hydroxycinnamic acid]", "values": [
      {"measurement": "selectivity for MCT1 (MCT1/4) compared to the other subtypes", "setting": "MCT1 [5]", "result": "ten-fold higher selectivity"}
    ]},
    {"compound": "N#CC(=Cc1ccc(O)cc1)C(=O)[O-].[Na+]", "note": "[α-CCA-Na, reference compound]", "values": [
      {"measurement": "AUC0–60 min gall bladder", "setting": "MCTs [6]; in vivo, 25 mg/kg", "result": 4453, "unit": "SUV min"},
      {"measurement": "AUC0–60 min kidney cortex", "setting": "MCTs [6]; in vivo, 25 mg/kg", "result": 178, "unit": "SUV min"},
      {"measurement": "AUC0–60 min kidney medulla", "setting": "MCTs [6]; in vivo, 25 mg/kg", "result": 1264, "unit": "SUV min"},
      {"measurement": "AUC0–60 min liver", "setting": "MCTs [6]; in vivo, 25 mg/kg", "result": 286, "unit": "SUV min"},
      {"measurement": "AUC0–60 min plasma", "setting": "MCTs [6]; in vivo, 25 mg/kg", "result": 40, "unit": "SUV min"},
      {"measurement": "AUC0–60 min vertebrae", "setting": "MCTs [6]; in vivo, 25 mg/kg", "result": 100, "unit": "SUV min"},
      {"measurement": "kidney uptake blocked by α-CCA-Na pre-treatment", "setting": "MCTs [6]; piglets", "result": "about 60%"},
      {"measurement": "reduction of [18F]FACH AUC0–60min in kidney medulla", "setting": "MCTs [6]; piglets, α-CCA-Na 25 mg/kg pre-treatment", "result": 50, "unit": "%"},
      {"measurement": "specifically bound radiotracer displaced", "setting": "MCTs [7]", "result": "around 50%"},
      {"measurement": "parent fraction of [18F]FACH in kidney cortex", "setting": "[8]", "result": 17.0, "unit": "%"},
      {"measurement": "selectivity for MCT1 (MCT1/4) compared to the other subtypes", "setting": "MCT1 [5]", "result": 10, "unit": "fold"},
      {"measurement": "displacement of [18F]FACH", "setting": "MCTs [2]", "result": 8, "unit": "%"},
      {"measurement": "decrease of kidney cortex SUV", "setting": "MCTs [9]; mice, 5 min after i.v. α-CCA-Na 25 mg/kg given 20 min after tracer", "result": 66, "unit": "%"},
      {"measurement": "kidney cortex SUV", "setting": "MCTs [9]; mouse, in vivo", "result": "1.41 ± 0.36"},
      {"measurement": "BPND = k3/k4 (2-TCM)", "setting": "MCTs [10]", "result": "12.96±5.40 1/1"},
      {"measurement": "AUC0–60 min gall bladder", "setting": "MCTs [3]; 25 mg/kg", "result": 486, "unit": "SUV min"},
      {"measurement": "AUC0–60 min kidney cortex", "setting": "MCTs [3]; 25 mg/kg", "result": 153, "unit": "SUV min"},
      {"measurement": "AUC0–60 min liver", "setting": "MCTs [3]; 25 mg/kg", "result": 417, "unit": "SUV min"},
      {"measurement": "AUC0–60 min small intestine", "setting": "MCTs [3]; 25 mg/kg", "result": 180, "unit": "SUV min"},
      {"measurement": "AUC0–60 min whole blood", "setting": "MCTs [3]; 25 mg/kg", "result": 63, "unit": "SUV min"},
      {"measurement": "rate constant for elimination of radio-metabolites from plasma (k−1)", "setting": "[11]", "result": "0.020 ± 0.003", "unit": "min⁻¹"}
    ]}
  ]
}
